The values that follow come from PMC3781147 (PLoS ONE, 2013).

The test system of test [1] is NOP receptors on rat mesenteric microvascular endothelium. The test is described as follows: Intravital microscopy study A: FITC-N/OFQ binding in mesenteric microcirculation. It counts as in vivo, rat (male Wistar). The settings on record: n=5.
In another test the test system is mean arterial pressure. The test is described as follows: Mean arterial pressure in anesthetised rats (study B). It counts as in vivo, rat (male Wistar).
In the next test the test system is heart rate. The test is described as follows: Heart rate in anesthetised rats (study B). It counts as in vivo, rat (male Wistar).
A further test concerns mesenteric arterioles. The test is described as follows: Intravital microscopy study B: arteriole diameter. The test is classed as in vivo, rat (male Wistar). The note with it: n=6.
The next test deals with mesenteric venules. The test is described as follows: Intravital microscopy study B: venule diameter. It counts as in vivo, rat (male Wistar).
In test [2] the test system is post-capillary venules (<40 µm). The test is described as follows: Intravital microscopy study B: macromolecular leak of FITC-BSA. The test is classed as in vivo, rat (male Wistar). The settings on record: n=6.
Test [3] deals with leukocyte rolling in post-capillary venules (<40 µm). The test is described as follows: Intravital microscopy study B: leukocyte rolling. It counts as in vivo, rat (male Wistar). The settings on record: n=6.
In test [4] the test system is cecal ligation and puncture (CLP) model of sepsis. The note with it: 0.03 mg kg^-1, rats; improved from approximately 30%; cited from earlier work. The source says: (§1) Only one study has previously utilised the selective NOP antagonist [Nphe^1, Arg^14,Lys^15]
For test [5], the system named is hypothalamic pituitary adrenal stress response. The settings on record: UFP-101 i.c.v.; cited from earlier work.
Text: as §1

The next test has as its system plasma TNF-α and IL-1β. The settings on record: 0.03 mg kg^-1 UFP-101; cited from earlier work.
Text: as §1

Another test relates to MAP. The settings on record: UFP-101 i.c.v.; cited from earlier work. The source says: (§2) Further studies likewise reported no differences in MAP between NOP^-/- and wild-type mice. However, our findings of tachycardia are in contrast to Burmeister & Kapusta. […] In ...
In test [6] the test system is heart rate, renal sympathetic nerve activity, MAP. The note with it: 300 pmol UFP-101 into PVN, conscious Sprague-Dawley rats; cited from earlier work.
Text: as §2

Test [7] has as its system rat mesenteric microcirculation. The settings on record: unpublished data within previous studies; cited from earlier work. From the text: Despite this, as part unpublished data within previous studies we also observed vasoconstriction with UFP-101 [9]. Compared to larger blood vessels the mesenteric microcirculation as studied here (<40 µm) receives little neural control. Thu ...

For the compound `CC(C)C[C@H](NC(=O)[C@H](CCCCN)NC(=O)[C@H](CCCNC(=N)N)NC(=O)[C@H](C)NC(=O)[C@H](CO)NC(=O)[C@H](CCCCN)NC(=O)[C@H](CCCNC(=N)N)NC(=O)[C@H](C)NC(=O)CNC(=O)[C@@H](NC(=O)[C@H](Cc1ccccc1)NC(=O)CNC(=O)CNC(=O)[C@@H](N)Cc1ccccc1)[C@@H](C)O)C(=O)N[C@@H](C)C(=O)N[C@@H](CC(N)=O)C(=O)N[C@@H](CCC(N)=O)C(=O)N[C@@H](CCCCNC(=S)Nc1ccc2c(c1)C(=O)OC21c2ccc(O)cc2Oc2cc(O)ccc21)C(N)=O` [FITC-N/OFQ, [Lys(FITC)^18]N/OFQ-NH2], the “Binding to mesenteric microvascular endothelium” value in test [1] (200 nM kg^-1 FITC-N/OFQ into mesenteric artery, control rats) is given as “bound to specific sites on the endothelium of arterioles”. In addition, the “Time course of decay of FITC fluorescence with vs without N/OFQ” value in test [1] (gray level over 60 s, 200 nM kg^-1 FITC-N/OFQ with (T-15) and without (T0) 200 nM.kg^-1 N/OFQ) is recorded as “The time courses were significantly different”.

Regarding lipopolysaccharide [LPS], in the test with mean arterial pressure (LPS i.v. -24 h 1 mg kg^-1, -2 h 0.5 mg kg^-1, median (interquartile range), n=6, control 105 (95 to 110), p=0.429), the “Mean arterial pressure, T40” value was 85 mmHg. For the same compound, in the test with heart rate (LPS i.v. -24 h 1 mg kg^-1, -2 h 0.5 mg kg^-1, n=6, p=0.004), the “Heart rate change with LPS, T40” value is recorded as “significant increase in heart rate”. For the same compound, the “Arteriole diameter change with LPS” value in the test on mesenteric arterioles (LPS i.v. -24 h and -2 h, p=0.057) was “diameter changes in arterioles were not significant”. For the same compound, in the test on mesenteric venules (LPS i.v. -24 h and -2 h, median (IQR), n=6, control 19.1 (17.8 to 20.8), p=0.002), the “Venule diameter, T40, LPS” value is 29.1 µm. Further, the “Macromolecular leak, T40, LPS” value in test [2] (LPS i.v. -24 h and -2 h, % change in interstitial FITC-BSA fluorescence from baseline, median (IQR), control 5.3 (-5.9 to 11.8), p=0.008) amounted to 95.3%. In addition, the “Leukocyte rolling, T40, LPS” value in test [3] (LPS i.v. -24 h and -2 h, median (IQR), control 3.0 (0.8 to 3.8), p=0.003) was determined as 7.0 per min.

With “[Nphe^1, Arg^14,Lys^15] N/OFQ-NH2 [UFP-101]”, the “Effect on MAP” value in the test on mean arterial pressure (UFP-101 150 nM kg^-1 i.v. alone (no LPS), n=6) was “no significant effect on MAP”. For the same compound, the “Effect on LPS-induced hypotension” value with mean arterial pressure (UFP-101 i.v., LPS rats) is “no reversal of the tachycardia or mild hypotension induced by LPS”. Also, the “Heart rate, T40” value with heart rate (UFP-101 150 nM kg^-1 i.v. alone (no LPS), median (IQR), n=6, control 330 (308 to 330), p=0.04) is on record as 375 bpm. Moreover, the “Effect on LPS-induced heart rate increase” value in the test on heart rate (UFP-101 150 nM kg^-1 i.v. in LPS rats, T40, n=6, p=0.004) is on record as “not altered by the addition of UFP-101”. In addition, the “Effect on LPS-induced tachycardia” value in the test on heart rate (UFP-101 i.v., LPS rats) is recorded as “no reversal of the tachycardia”. The “Arteriole diameter, T40, UFP-101” value in the test on mesenteric arterioles (UFP-101 150 nM kg^-1 i.v. alone (no LPS), median (IQR), control 16.2 (10.9 to 17.7), p=0.004, difference also present initially) amounted to 7.1 µm. In addition, in the test on mesenteric venules (UFP-101 150 nM kg^-1 i.v. alone (no LPS), T40, median (IQR), n=6, control 19.1 (17.8 to 20.8), p=0.001, difference also present initially), the “Venule diameter, UFP-101” value worked out at 9.7 µm. The “Effect on LPS-induced venule vasodilation” value with mesenteric venules (UFP-101 150 nM kg^-1 i.v., LPS rats) was “reduced vasodilation of venules in response to LPS”. Further, the “Macromolecular leak, T40, LPS + UFP-101” value in test [2] (150nmol.kg^-1 UFP-101 i.v. in LPS rats, median (IQR), not significantly different from controls (p=0.063)) is on record as -34.9%. Further, in test [2] (UFP-101 150 nmol kg^-1 i.v. alone, p=0.151), the “Effect on macromolecular leak, no LPS” value is given as “no effect”. In addition, in test [3] (150nmol.kg^-1 UFP-101 i.v. in LPS rats, median (IQR), not significantly different from controls (p=0.117)), the “Leukocyte rolling, T40, LPS + UFP-101” value is given as 0 per min. Besides, the “Effect on leukocyte rolling, no LPS” value in test [3] (UFP-101 150 nmol kg^-1 i.v. alone, p=0.394) is “no effect”. Further, the “Survival in CLP, UFP-101” value in test [4] is on record as ~65%. In addition, in [5], the “HPA stress response to LPS” value was “reduced the hypothalamic pituitary adrenal stress response to LPS”. For the same compound, the “Plasma TNF-α and IL-1β in CLP” value with plasma TNF-α and IL-1β was “reduced plasma concentrations of TNF-α and IL-1β”. Also, the “Effect on MAP, i.c.v. mice” value in the test with MAP was “no effect on MAP”. In test [6], the “Heart rate and renal sympathetic nerve activity” value is “increased heart rate and renal sympathetic nerve activity”; the “MAP after PVN injection” value is on record as “non-significant increase in MAP”. Further, in [7], the Vessel constriction entry was “vasoconstriction”.
